Measurements taken from US12318452B2, “Degraders of WEE1 kinase” (DANA-FARBER CANCER INSTITUTE, INC., priority 2018, dated 2025).

Columns and labels:
Wee1 = Wee1 (Homo sapiens, UniProt P30291); test: LanthaScreen FRET-based biochemical binding assay for Wee1; conditions: LanthaScreen Binding activity assay; average of two replicates ± SD
Experimental: (§1) LanthaScreen™ assays were conducted for Wee1 in a 10-point dose response as performed in the commercial assay service by Life Technologies™. Z′-LYTE™ assays were conducted for PLK1 as performed in the commercial assay service by Life Technologies™ in a 10-point dose response using Km ATP concentrations.

pCDK1 Y15 = test: Downstream signalling immunoblot in MOLT4 cells (pCDK1 Y15, cleaved PARP, γH2Ax); assay type: cell-based; conditions: 1 μM, 24 hours, MOLT4 cells
Experimental: Whole cell lysates for immunoblotting were prepared by pelleting cells from each cell line at 4° C. (300 g) for 5 minutes. The resulting cell pellets were washed 1× with ice-cold PBS and then resuspended in RIPA lysis buffer (Sigma, cat #R0278) supplemented with protease and phosphatase inhibitor tablets (Roche cat #4906845001). Lysates were clarified at 14,000 rpm for 15 minutes at 4° C. prior to quantification by BCA assay (Pierce™, cat #23225). Whole cell lysates were loaded into Bolt 4-12% Bis-Tris Gels (Thermo Fisher, cat #NW04120BOX) and separated by electrophoreses at 95 V for 1.5 hours. The gels were transferred to a nitrocellulose membrane using the iBlot® Gel Transfer at P3 for 7 minutes (Thermo Fisher, cat #IB23001) and then blocked for 1 hour at room temperature in Odyssey® blocking buffer (LICOR® Biosciences, cat #927-50010). Membranes were probed using antibodies against the relevant proteins at 4° C. overnight in 20% Odyssey® Blocking Buffer in 1×TBST. Membranes were then washed three times with 1×TBST (at least 5 minutes per wash) followed by incubation with the IRDye® goat anti-mouse (LICOR®, cat #926-32210) or goat anti-rabbit (LICOR®, cat #926-32211) secondary antibody (diluted 1:10,000) in 20% Odyssey® Blocking Buffer in 1×TBST for 1 hour at room temperature. After three washes with 1×TBST (at least 5 minutes per wash), the immunoblots were visualized using the ODYSSEY® Infrared Imaging System (LICOR®).
MOLT4 cells were plated at 1.5 million cells per well in a 6-well plate, with 3 mL of media per well. Cells were then immediately treated with the indicated concentration of the indicated compound and incubated for the indicated amount of time. Cells were collected by transferring each well to a 15 mL conical, centrifuging (1000 rpm for 3 min), then washing the cell pellet 2× with cold PBS. Each cell pellet was then lysed in 100 μL of RIPA lysis buffer (+protease/phosphatase inhibitors). Samples were normalized and prepped in 4×LDS+10% β-mercaptoethanol and boiled for 5 min at 95° C. Lysates were probed for specified proteins by western blotting using the Bolt® system (Life Technologies™)
The effects of targeted Wee1 degradation on the cell cycle were evaluated. Wee1 is required for the temporal regulation of CDK1 at the G2/M cell-cycle checkpoint, and Wee1 loss therefore […] via activation of CDK1. Following loss of Wee1 activity, cells are expected to enter mitosis before completing DNA repair, ultimately resulting in excessive unrepaired DNA damage, mitotic catastrophe, and apoptosis (Beck et al., Mol. Cell Biol. 32:4226-4236 (2012)).

[1] = test system: MOLT4 cells (parental, wild type); test: CellTiter-Glo cell viability, 72 hours; assay type: cell-based; conditions: 72-hr
Experimental: The indicated cell lines were plated in flat bottom 384-well plates (Corning® cat #3570). MOLT4 cells were plated at a density of 3,000 cells per well in 50 μL media, while OVCAR8, COV362, and Kuramochi cells were plated at a density of 750 cells per well in 50 μL media. Cells were treated the next day (except for MOLT4 cells, which were treated the same day as plating) with 0.1 μL of the indicated compounds in a four-fold dilution series using the Janus pinner. Cells were incubated with compounds for 72 hours at 37° C. 5% CO2. Anti-proliferative effects were then assessed by CellTiter-Glo® Luminescent Cell Viability Assay (Promega™ cat #G7570) according to the manufacturer's standards, measuring luminescence using an EnVision® plate-reader. IC50 values were determined using a non-linear regression curve fit in GraphPad Prism 8. N=4 biological replicates were used for each treatment condition.
MOLT4 cells were plated in a 384-well plate at 5,000 cells per well in 50 μL media (RPMI+10% FBS+1% Penn/Strep) and treated with 0.1 μL of the candidate compounds in four-fold dilution series using the Janus pinner. Cells were incubated with compounds for 72 hours at 37° C. 5% CO2. Anti-proliferative effects of these compounds were assessed 72 hours after compound addition using CellTiter-Glo® (Promega, cat #G7571). All proliferation assays were performed in biological quadruplicate. […] Effects upon cell viability for compound 13 in the MOLT4 WT cells are therefore likely driven in part by Wee1 inhibition, and in part by CRBN-mediated Wee1 degradation. […] Degradation of Wee1 with compound 21 was mediated by VHL.

OVCAR8 cells = test: Synergy experiment, CellTiter-Glo co-treatment for 72 hours; assay type: cell-based
PLK1 = PLK1 (Homo sapiens, UniProt P53350); test: Z′-LYTE kinase activity assay for PLK1; assay type: biochemical; set-up: purchased Life Technologies (Invitrogen) commercial assay service; conditions: Km ATP, average of two replicates ± SD
Experimental: as §1
The selectivity of Wee1 degradation was then assessed by performing multiplexed mass spectrometry (MS)-based proteomics in MOLT4 cells treated with 100 nM of compound 13 for 2 hours (Donovan et al., Elife 7:e38430 (2018)).

Wee1, sequence (P30291 whole entry): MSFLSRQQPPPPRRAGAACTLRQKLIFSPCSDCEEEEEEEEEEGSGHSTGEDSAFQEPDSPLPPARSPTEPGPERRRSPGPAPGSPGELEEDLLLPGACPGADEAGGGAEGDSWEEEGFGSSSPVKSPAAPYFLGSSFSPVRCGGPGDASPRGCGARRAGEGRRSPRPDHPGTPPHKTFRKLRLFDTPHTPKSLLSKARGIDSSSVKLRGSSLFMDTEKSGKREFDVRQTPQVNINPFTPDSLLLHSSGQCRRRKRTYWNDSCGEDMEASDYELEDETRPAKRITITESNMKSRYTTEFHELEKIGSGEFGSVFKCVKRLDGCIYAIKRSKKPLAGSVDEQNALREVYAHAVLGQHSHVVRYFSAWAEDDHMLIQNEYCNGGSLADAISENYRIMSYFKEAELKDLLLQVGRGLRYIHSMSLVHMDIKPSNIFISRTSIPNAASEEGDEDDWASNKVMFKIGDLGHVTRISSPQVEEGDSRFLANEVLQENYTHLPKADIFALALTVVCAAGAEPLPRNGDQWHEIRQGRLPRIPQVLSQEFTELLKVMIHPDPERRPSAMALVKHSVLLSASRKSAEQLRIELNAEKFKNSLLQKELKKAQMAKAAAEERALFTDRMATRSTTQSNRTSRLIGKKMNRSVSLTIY
PLK1, sequence (P53350 whole entry): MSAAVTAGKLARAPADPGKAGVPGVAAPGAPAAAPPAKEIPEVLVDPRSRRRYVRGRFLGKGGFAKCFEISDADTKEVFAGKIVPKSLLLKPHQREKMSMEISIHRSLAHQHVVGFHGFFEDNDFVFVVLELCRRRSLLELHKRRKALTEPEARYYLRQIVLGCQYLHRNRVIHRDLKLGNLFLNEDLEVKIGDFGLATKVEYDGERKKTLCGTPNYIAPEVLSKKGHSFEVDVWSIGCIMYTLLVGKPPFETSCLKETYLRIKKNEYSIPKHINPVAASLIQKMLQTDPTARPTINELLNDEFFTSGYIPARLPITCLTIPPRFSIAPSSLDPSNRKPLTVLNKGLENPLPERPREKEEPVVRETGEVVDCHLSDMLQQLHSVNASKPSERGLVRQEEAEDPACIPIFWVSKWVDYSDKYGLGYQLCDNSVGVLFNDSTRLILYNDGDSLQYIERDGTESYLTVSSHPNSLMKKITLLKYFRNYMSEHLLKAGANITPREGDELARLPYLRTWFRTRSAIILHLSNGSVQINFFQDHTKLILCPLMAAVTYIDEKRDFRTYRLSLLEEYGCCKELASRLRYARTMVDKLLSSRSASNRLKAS

Nc1cccc2c1C(=O)N(C1CCC(=O)NC1=O)C2=O (stereo not drawn) [Pomalidomide, reference compound]
IC50 (Wee1): > 10 µM | Effect on phosphorylation of CDK1 Y15, apoptosis, DNA damage (pCDK1 Y15): did not affect phosphorylation of CDK1 Y15, apoptosis, or levels of DNA damage | Antiproliferative activity [1]: no detectable antiproliferative activity | Synergy with AZD1775 (OVCAR8 cells; 72-hr co-treatment with AZD1775): not synergistic | Synergy with Olaparib (OVCAR8 cells; 72-hr co-treatment with Olaparib): not synergistic | IC50 (PLK1): > 10 µM
